Series [1] is described as follows: Peptide-induced K+ release from unilamellar liposomes (Example 2). The following applies: 22° C.; for % K+ - Release POPC: POPC liposomes; for % K+ - Release POPC:POPG1:1: POPC:POPG 1:1 liposomes; for % K+ - Release POPC:POPG,3:1: POPC:POPG 3:1 liposomes.
Procedure: Peptide-induced K′ release from liposomes. Liposomes (see above) were made in 100 nM KCl, 10 mM Tris-HCl, pH 7.5. The external KCl was reduced to less than 0.1 mM by two passages through a PD10 column (Pharmacia Biotech AB, Uppsala, Sweden) equilibrated in NaCl buffer (100 mM NaCl, 10 mM Tris-HCl, pH 7.5). Potassium release from liposomes was detected by a K′-selective microelectrode (Micro-electrode Inc.) and recorded on VHS tape using a pulse-code modulator. Peptides were assayed at 10 μM and 30 μM.
Unilamellar liposomes formed from (i) POPC; (ii) POPC and POPG at a molar ratio of POPC: POPG of 3:1, or (iii) POPC and POPG at a molar ratio of POPC: POPG of 1:1 were prepared in 100 mM KC1 according to the procedure described in Example 1. Peptide-induced K+ release from the liposomes also was detected according to the procedure described in Example 1. All measurements were carried out at 22° C.
Series [2] is described as follows: Peptide-induced K+ release from liposomes (Example 1). Format: biochemical. The following applies: for % K+-release: liposomes POPG/POPC 1:3, 10 mg/ml, loaded with 100 mM KCl, total release with 0.1 M Triton X-100, <2% not detectable. The method, then:
Liposomes were prepared from 1-Palmitoyl-2-Oleoyl-sn-Glycero-3-(Phospho-rac-(1-glycerol)) (POPG) and 1-Palmitoyl-2-Oleoyl-sn-Glycero-3-Phosphocholine (POPC) (Avanti Polar Lipids Inc., Birmingham, Ala.). The lipid-chloroform solutions were mixed at a molar ratio of 1:3 (POPG:POPC), dried under N2 and vacuum, sonicated, and taken through freeze-thaw cycles repeated a minimum of 5 times.
Peptide-induced K′ release from liposomes. […] Enzymol., Vol. 235, pgs. 699-713 (1994).
^b Percentage of the intraliposomal K^+ release induced by […] peptides from liposomes (POPG/POPC 1:3, 10 mg/ml) loaded with 100 mM KC1 and dialyzed against 100 mM NaCl buffer. […] . Total K^+ release was obtained with 0.1 M Triton X-100.
A novel approach was developed to measure the membrane activity of peptide 598-616. Peptide-induced release of K^+ from KCl-loaded lipid vesicles was detected using a K^+-selective electrode. The addition of 10 μM wild type peptide 598-616 causes 29% K^+ content release. At a concentration of 30 μM, about 70% K^+ content is released from liposomes (data not shown). For comparison, 10 μM melittin, a lytic component of bee venom, causes 31% K^+ content release.

Series [3] in a line: Electron paramagnetic resonance analysis of spin labeled peptides with liposomes. The class given is physicochemical. The following applies: for aggregation state by EPR (in words): membrane-bound state or solution. The method, then: B. Spin-Labeled Peptide 598-616 Associates With Membranes As Determined By Electron Paramagnetic Resonance (EPR) Analysis. […]; lipid to peptide molar ratio 100:1; solid line). The arrow marks the position of a small component of free spin.
Spin labeled peptides (50 μM) diluted in buffer (50mM NaPO4, 100 mM NaCl, pH 7.4) were added to the extruded liposomes at a peptide-to-lipid molar ratio of greater than 1/100. X-band electron paramagnetic resonance (EPR) spectra were recorded at room temperature. The spin accessibility parameter (II) was determined for 20 mM nickel ethylenediaminediacetic acid, or NiEDDA, and O2 in equilibrium with air as previously described (Farahbakhsh, et al., Photochemistry and Photobiolocy, Vol. 56, pgs. 1019-1033 (1992)). The topology or context parameter φ was calculated as φ=ln [II(O2)/II(NiEDDA)] (Altenbach, et al., Proc. Nat. Acad. Sci., Vol. 91, pgs. 1667-1671 (1994)).
The structural features of the peptide 598-616 bound to membranes were investigated further by EPR analysis of corresponding peptides modified to contain single R1 nitroxide side chains at the positions indicated in FIG. 2C. For each labeled peptide in solution, the EPR spectrum consisted of three sharp resonance lines characteristic of a random coil for peptides containing R1 (Farahbakhsh, et al., Biochemistry, Vol. 34, pgs. 509-516 (1995)). A representative example is shown by the dotted line in FIG. 2B for the V606-R1 peptide. […] Judging from the line shapes, the contribution from the unbound peptide is very small, less than 1% (arrow FIG. 2B). All peptides 598-616 gave similar effects, although the individual line shapes varied (data not shown).
Spin-spin interactions between nitroxides result in spectral broadening over and above that due to motional effects (Mchaourab, et al., Biochemistry, Vol. 36, pgs. 307-316 (1997)).

The nature of series [4]: Circular dichroism analysis of α-helical content. Format: physicochemical. The following applies: for secondary structure by CD (in words): aqueous vs liposome environment. The method, then: A. Membrane-Dependent Formation Of An α-Helical Structure By Peptide 598-616 As measured By Circular Dichroism (CD). The plot represents an average of 9 CD spectra for 50 μM peptide 598-616 in an aqueous solution (20 mM NaPO4,pH 7, dashed line), and in presence of liposomal membrane vesicles (POPG/POPC [1:3] liposomes in 20 mM Na2 PO4, pH 7.4; lipid to peptide molar ratio 100:1; solid line). The measurements were obtained for wavelength 195-250 nm at 20 mdeg sensitivity.
The peptides for circular dichroism (CD) analysis were used at a final concentration of 50 μM. The stock solution of extruded liposomes at 50 mg/ml was used. The final peptide-to-lipid molar ratio was 1/100 in 20 mM Na2PO4 buffer. CD spectra were obtained using a Jasco J-600 CD spectrometer. Samples were scanned from 250 nm to 195 nm using cuvettes with a path length of 1 mm. Each result represents an average of 9 scans.
To analyze the secondary structure of the peptides corresponding to MoMuLV cytoplasmic tail segments, the peptides 598-616 and 617-632 were evaluated by CD spectroscopy. The CD spectrum produced by the peptide 598-616 absorption of polarized light in an aqueous environment is characteristic of a random coil conformation (FIG. 2A, dotted line). […] The estimated percent α-helicity for peptide 598-616 is nearly 60%. Similar α-helical properties have been observed for the lytic amphiphilic segments from HIV-1 env cytoplasmic tail and the active component of bee venom, melittin (Eisenberg, et al., Biopolymers, Vol. 29, pgs. 171-177 (1992)). Thus, the computer-predicted α-helical structure for the region 598-616 is confirmed for peptide 598-616 by CD analysis in the presence of membranes.

Series [5] concerns XC6 cell co-cultured with env-transfected 293T cells. The series is described as follows: End point cell-to-cell fusion assay, 293T/XC6 co-culture. The following applies: relative fusion efficiency, WT = 100.
Procedure: Viral particles were obtained from 293T cells transfected transiently (n=3−5) with the expression plasmids for env, gag-pol, and β-gal, with wild type or mutant (616*, 601*, 598*, 595SR*, 578*, GLA ecto) env. Transduction efficiency of these virions (white bars=titers) was tested on NIH3T3 cells. The Env fusogenicity (filled bars =% fusion) was measured by expressing Env only in 293T cells. The indicator XC6 cells were added 24 hours post-transfection, were fixed 12 hours later and scored microscopically on ten 2 mm^2 grids for syncytia (cells with four or more nuclei).
Cell-To-Cell Fusion Assays For the end point fusion assay, 5×10^5 XC6 cells were added to the env transfected 293 T cells 20 hrs. post-transfection, and stained with methylene blue (0.01% in methanol) at about 36 hours post-transfection for syncytia (cells with 4 or more nuclei) scoring.
The end point fusion assay measures env-induced cell-to-cell fusion between env-transfected 293T cells and the ecotropic receptor expressing XC cells at 36 hrs post-transfection.
In series [6] the test system is NIH3T3 cells. The series is described as follows: Syncytia formation in env-transfected NIH3T3 cells. Format: cell-based. The following applies: relative fusion efficiency, normalized to 616* = 100.
Series [7] deals with NIH3T3 cells. The series is described as follows: Transduction assay, β-gal titer on NIH3T3 cells. Format: cell-based. The following applies: WT = 100.
The subject of series [8] is env-transfected 293T cells. The series is described as follows: Cell surface envelope protein expression by indirect immunofluorescence. The following applies: relative, WT = 100.
Procedure: NIH3T3 cells (1H10^5) , 293T or 293/12 (1H10^6) per 60 mm2 plates were transfected according to the Ca(PO4)2 transfection protocol of 5′-3′ Inc. (Boulder, Colo.) (day 1). For cell surface expression and co-culture experiments, 15 μg env expression plasmid was used.
Cell Surface Expression And The Analysis Of Viral Envelope Particle Incorporation Assays were done as described in Januszeski, et al., J. Virol., Vol. 71, pgs.

The source of these data is patent US20020058020A1, “Isolated amphiphilic peptides derived from the cytoplasmic tail of viral envelope proteins” (priority 1999, published 2002).

Ends that are not written are not given here. R1 = not defined here

On to Triton X-100 [reference compound], for which, in series [1], the “% K+ - Release POPC” value stood at 100%, the “% K+ - Release POPC:POPG1:1” value is 100% and the “% K+ - Release POPC:POPG,3:1” value stood at 100%. For the same compound, in series [2], the “% K+-release” value was 100%.
On to Magainin [reference compound], for which, in series [1], the “% K+ - Release POPC” value came to 8%, the “% K+ - Release POPC:POPG1:1” value is given as 51% and the “% K+ - Release POPC:POPG,3:1” value came to 43%.
The like results for “598-632 Q604C: peptide 598-632 with Q604C substitution” were, in that order, 6%, 31% and 30%.
The like results for “598-616 D608C: peptide 598-616 with D608C substitution (ILNRLVQFVKCRISVVQAL; UniProt P03385 631-649, looked up, variant D608C)” were, in that order, 5%, 11% and 7%.
For “598-632: peptide representing the whole cytoplasmic tail region (598-632) [Peptide 598-632]”, in series [3], the “aggregation state by EPR (in words)” value is “monomeric association with the membrane”. In addition, the “secondary structure by CD (in words)” value in series [4] is “higher helical content in the presence of membrane vesicles than the peptide 598-616 alone”.
For “WT: wild type MoMuLV ecotropic envelope protein”, the “Fusion 293T/XC6” value in series [5] is listed as 100. Besides, in the series with NIH3T3 cells [6], the “Fusion NIH3T” value was found to be 0. Further, the “Titer (relative β-gal titer)” value in the series with NIH3T3 cells [7] is reported as 100. For the same compound, in series [8], the “Cell Surface Expression” value is recorded as 100.
As to “V606-R1 peptide: nitroxide-labeled peptide 598-616 V606C(R1) (ILNRLVQFC(R1)KDRISVVQAL; reading uncertain; UniProt P03385 631-649, looked up, variant V606C)”, the “contribution from the unbound peptide” value in series [3] (upon addition to liposomes, judged from EPR line shapes) is reported as “less than 1%”.
Turning to `CC[C@H](C)[C@H](NC(=O)CN)C(=O)NCC(=O)N[C@@H](C)C(=O)N[C@H](C(=O)N[C@@H](CC(C)C)C(=O)N[C@@H](CCCCN)C(=O)N[C@H](C(=O)N[C@@H](CC(C)C)C(=O)N[C@H](C(=O)N[C@H](C(=O)NCC(=O)N[C@@H](CC(C)C)C(=O)N1CCC[C@H]1C(=O)N[C@@H](C)C(=O)N[C@@H](CC(C)C)C(=O)N[C@H](C(=O)N[C@@H](CO)C(=O)N[C@@H](Cc1c[nH]c2ccccc12)C(=O)N[C@H](C(=O)N[C@@H](CCCCN)C(=O)N[C@@H](CCCNC(=N)N)C(=O)N[C@@H](CCCCN)C(=O)N[C@@H](CCCNC(=N)N)C(=O)N[C@@H](CCC(N)=O)C(=O)N[C@@H](CCC(N)=O)C(N)=O)[C@@H](C)CC)[C@@H](C)CC)[C@@H](C)O)[C@@H](C)O)C(C)C)C(C)C` [melittin, reference compound], in series [1], the “% K+ - Release POPC” value worked out at 31%, the “% K+ - Release POPC:POPG1:1” value worked out at 27% and the “% K+ - Release POPC:POPG,3:1” value was found to be 31%. Besides, in series [2] (10 μM peptide), the “K+ content release” value worked out at 31%. For the same compound, in series [2], the “% K+-release” value worked out at 30.9 ± 2.1%.
In the case of “602-616: peptide of MoMuLV env residues 602-616 (LVQFVKDRISVVQAL; UniProt P03385 635-649, looked up, fragment) [Peptide 602-616]”, in series [1], the “% K+ - Release POPC” value amounted to 2%, the “% K+ - Release POPC:POPG1:1” value came out at 5% and the “% K+ - Release POPC:POPG,3:1” value stood at 4%.
With “598-616 F605C: peptide 598-616 with F605C substitution (ILNRLVQCVKDRISVVQAL; UniProt P03385 631-649, looked up, variant F605C)”, in series [1], the “% K+ - Release POPC” value stood at 8%, the “% K+ - Release POPC:POPG1:1” value is 7% and the “% K+ - Release POPC:POPG,3:1” value is recorded as 4%.
With “598-616 Q604C: peptide 598-616 with Q604C substitution (ILNRLVCFVKDRISVVQAL; UniProt P03385 631-649, looked up, variant Q604C)”, in series [1], the “% K+ - Release POPC” value was found to be 29%, the “% K+ - Release POPC:POPG1:1” value was determined as 28% and the “% K+ - Release POPC:POPG,3:1” value came out at 20%.
The like results for “598-616 R601C: peptide 598-616 with R601C substitution (ILNCLVQFVKDRISVVQAL; UniProt P03385 631-649, looked up, variant R601C)” were, in that order, 32%, 13% and 10%.
On to “598-616 R609A: peptide 598-616 with Arg 609 Ala mutation (ILNRLVQFVKDAISVVQAL; UniProt P03385 631-649, looked up, variant R609A)”, for which, in series [1], the “% K+ - Release POPC” value is 11%, the “% K+ - Release POPC:POPG1:1” value stood at 0% and the “% K+ - Release POPC:POPG,3:1” value came out at 0%. In addition, in series [2], the “loss of K+ release relative to wild type peptide 598-616” value is 75% and the “% K+-release” value stood at 9.9 ± 1.8%.
As for “ILNRLVQFVKDRISVVQAL (Moloney murine sarcoma virus) [Peptide 598-616, amino acid residues 598-616 of the wild type envelope protein of Moloney Murine Leukemia Virus]”, in series [1], the “% K+ - Release POPC” value was found to be 9%, the “% K+ - Release POPC:POPG1:1” value was found to be 24% and the “% K+ - Release POPC:POPG,3:1” value stood at 13%. Also, the “K+ content release” value in series [2] (10 μM peptide) stood at 29%. For the same compound, in series [2] (30 μM peptide, data not shown), the “K+ content release” value is listed as “about 70%”. For the same compound, the “% K+-release” value in series [2] was determined as 29.3 ± 3.6%. Moreover, in series [3], the “aggregation state by EPR (in words)” value was “monomeric association with the membrane”. In addition, in series [4] (50 μM peptide in presence of liposomes, lipid to peptide 100:1), the “estimated percent α-helicity” value is roughly 60%. Moreover, the “secondary structure by CD (in words)” value in series [4] was “becomes α-helical”.
Consider “598-611: peptide of MoMuLV env residues 598-611 (ILNRLVQFVKDRIS; UniProt P03385 631-644, looked up, fragment) [Peptide 598-611]”, for which, in series [1], the “% K+ - Release POPC:POPG1:1” value stood at 22% and the “% K+ - Release POPC:POPG,3:1” value stood at 13%.
